According to patent publication US8268767B2, “Personal wash cleanser comprising defined alkanoyl compounds, defined fatty acyl isethionate surfactant product and skin or hair benefit agent” (priority 2010, dated 2012):

Tested on: skin (patch test sites on the intrascapular area of the back)
Assay: Patch Test, 14-day cumulative irritation test
Conditions: for Patch test Total irritation score: cleansers diluted to 25% w/w, 14-day cumulative score
Description: This was randomized, double-blind study. A sufficient number of subjects were recruited to ensure that 25 subjects completed the study. The 14-day cumulative irritation test was conducted as follows. Patching occurred for 14 consecutive days, except on Sundays. Patches applied on Saturday were left in place until Monday, when freshly prepared patches were applied. The designated patch test sites were approximately 2 cm×2 cm on the intrascapular area of the back. Approximately 0.2 mL of the test product was placed onto a Parke-Davis Readi-Bandage® occlusive patch that measured 2 cm×2 cm. Solutions were made by diluting the cleansers to 25% w/w in distilled water. The patch was then applied to the designated test site. The patches were secured with hypoallergenic tape (Scanpor {Allerderm} as needed). A 0.5% sodium dodecyl sulfate (SDS) solution was used as the control in the test.
Each day following application, the patches were removed, the sites evaluated and identical patches reapplied to the same test sites. All evaluations were made using the following 6-point scoring system: • 0=No evidence of any effect • +=Barely perceptible (minimal, faint, uniform or spotty erythema) numerically equivalent to 0.5 • 1=Mild (pink, uniform erythema covering most of the contact site) • 2=Moderate (pink-red, erythema uniform in the entire contact site) • 3=Marked (bright red erythema with/without petechiae or papules) • 4=Severe (deep red erythema with/without vesiculation or weeping)
If a dermal reaction of 3 or 4 occur with any of the test articles at any point during the study, further patch testing on that subject was terminated at the test site involved, and the attained score was assigned to that site for the subsequent scheduled test days.
Cumulative irritation scores, which were the sum of the numerical irritation grades assigned daily during the 14-day test period, were calculated at the end of the study to compare mildness of the test products. […] The data were statistically analyzed using Tukey-Kramer Comparison, and statistical significance was determined at the 95% confidence level.

[1] = first patch test of Table 1 (0.5% SDS control = 783)
[2] = second patch test of Table 1 (0.5% SDS control = 912)

**Q.** CCCCCCCCCCCCOS(=O)(=O)[O-].[Na+] [0.5% SDS Solution, sodium dodecyl sulfate] was tested. Which “Total irritation score compared to 0.5% SDS solution” value [1] did it give?
**A.** The value was 100%.

**Q.** What about the “Patch test Total irritation score” value [1] of the same compound?
**A.** The value was 783.

**Q.** What about the “Total irritation score compared to 0.5% SDS solution” value [2] of the same compound?
**A.** The value was 100%.

**Q.** What about the “Patch test Total irritation score” value [2] of the same compound?
**A.** The value was 912.
